Source: article PMC5882637, “Ethanol potentiates the genotoxicity of the food-derived mammary carcinogen PhIP in human estrogen receptor-positive mammary cells: mechanistic support for lifestyle factors (cooked red meat and ethanol) associated with mammary cancer” (Archives of Toxicology, 2018)

Key:
MDA-MB-231 cells [1] = experiment: Micronucleus (MN) assay, MDA-MB-231
Procedure: (§1) Cells were cultured routinely in 75-cm^2 flasks in a humidified incubator at 37 °C, 5% CO2.
(§2) Briefly, cells were seeded at a density of 5 × 10^4 cells per well in 24-well plate. Cells were treated with PhIP or ethanol as detailed previously. Following treatment with chemicals and harvesting (48 h), cells were trypsinised, the cell concentration adjusted to 2 × 10^5 and re-suspended in serum-free R0 (serum-free media) with 2% pluronic acid medium (GIBCO, Life technologies) and cytotoxicity was determined by counting cells in a haemocytometer with TrypanBlue exclusion (GIBCO, Life technologies). For the MN assay, cells were spread on a microscope slide using a cytospin. Cells at a density of 2 × 10^4 cells per slide were fixed with 100% methanol and stained for 60 s with acridine orange (0.1 mg ml^−1 dissolved in PBS, Sigma-Aldrich). Frequency of MN was scored in 2000 cells per sample and three biological replicates were performed per treatment.

STAT3 mRNA expression = experiment: qPCR STAT3 mRNA, MCF-7; format: cell-based, human; conditions: 24 h PhIP treatment, Fig. 3b
Procedure: as §1
(§3) Following treatment, cells were lysed using TRIZOL reagent and chloroform (0.2 ml) was added in each sample and centrifuged 12,000xg (10 min 2–8 °C). The upper aqueous phase was transferred to a fresh tube and 5 µg of RNase-free glycogen (as carrier to aqueous phase) and 0.5 ml of isopropyl alcohol was added to precipitate RNA and incubated (37 °C, 10 min). Following incubation, lysates were centrifuged at 12,000xg (10 min 2–8 °C). The gel-like pellet was washed with ethanol and re-dissolved in RNase-free water with heating (55–60 °C). Extracted RNA was quantified by UV spectroscopy (UV–VIS Nano-spectrophotometer, Implen, Essex, UK) and purity was assessed from 260/280 nm and 260/230 nm ratios. Reverse transcription (RT) of extracted RNA (100–500 ng) was completed according to manufacturer’s protocol (Invitrogen) and qPCR was performed using predesigned Taqman gene expression assays and FAST PCR master mix (Taqman, Applied Biosystems, Life technologies) using a StepOnePlus fast real-time PCR system (Applied Biosystems, Life technologies). Target gene expression was normalized to GAPDH and quantified using the delta-Ct method (Livak and Schmittgen [2001]).

CYP2E1 mRNA expression [2] = experiment: RT-qPCR CYP2E1 mRNA, MCF-7
Procedure: as §1
For STAT3 inhibition, cells were co-treated for 24 h with PhIP and 25 µM STAT3 inhibitor (STAT3 inhibitor VIII 5, 15 diphenylporphyrin, Millipore, Feltham, UK). STAT3 inhibitor was dissolved in DMSO. For ethanol treatment, media was supplemented with different concentrations of ethanol (10 mM-100 mM, Sigma-Aldrich) and was added to the cells. In some experiments, N-acetyl-cysteine (NAC) (10 mM, Sigma-Aldrich) diluted in phosphate-buffered saline (PBS) was added to incubations.
as §3

MCF-7 cells [3] = experiment: Cytotoxicity (cell counting, TrypanBlue exclusion), MCF-7
Procedure: as §1, §2

miR378 expression = experiment: qPCR miR378, MCF-7; format: cell-based, human; conditions: 24 h PhIP treatment, Fig. 3b
Procedure: as §1, §3

MDA-MB-231 cells [4] = experiment: Cytotoxicity (cell counting, TrypanBlue exclusion), MDA-MB-231
Procedure: as §1, §2

CYP1A2 mRNA expression [5] = experiment: RT-qPCR CYP1A2 mRNA, MCF-7; conditions: 24 h, E2 1 µM, Fig. 2a
Procedure: as §1, §3

CYP1A1 [6] = experiment: RT-qPCR CYP1A1 mRNA, MDA-MB-231; format: cell-based, human; conditions: data not shown
Procedure: as §1, §3

MCF-7 cells [7] = experiment: Micronucleus (MN) assay, MCF-7
Procedure: as §1, §2

JAK2 mRNA expression = experiment: qPCR JAK2 mRNA, MCF-7; format: cell-based, human; conditions: PhIP-treated, Fig. 3b
Procedure: as §1, §3

CYP1B1 mRNA expression [8] = experiment: RT-qPCR CYP1B1 mRNA, MCF-7
Procedure: as §1, §3

CYP2E1 mRNA expression [9] = experiment: RT-qPCR CYP2E1 mRNA, MDA-MB-231; format: cell-based, human; conditions: PhIP treatment, Fig. 3a
Procedure: as §1, §3

[10] = system: intracellular ROS in MCF-7 cells; experiment: ROS assay (carboxy-DCF-DA), MCF-7; format: cell-based, human; conditions: for intracellular ROS levels: ethanol 50 mM or PhIP 100 µM alone, Fig. 6c
Procedure: STAT3 inhibitor was dissolved in DMSO.
Production of reactive oxygen species (ROS) was measured using 2′,7′–dichlorofluorescein diacetate method. Carboxy-2′,7′-dichlorofluorescein diacetate (carboxy-DCF-DA) is taken up by viable cells and cleaved by endogenous esterases to the nonfluorescent derivative, reduced carboxy-dichlorofluorescein (carboxy-DCFH). This product is retained in the cytosol where it can be oxidized by intracellular ROS to the highly fluorescent product, oxidised carboxy-dichlorofluorescein (carboxy-DCF). The intensity of fluorescence is proportional to intracellular ROS levels. MCF-7 cells (2 × 10^4/well) were seeded into 24-well plates in 1% FBS and allowed to attach overnight. Cells were treated with PhIP for 24 h and then treated with Carboxy-DCFDA (20 µL, 30 µM) in media containing 1% FBS (1 ml) and incubated for 30 min at 37 °C, washed with PBS and new media (1% FBS) was added. Fluorescent measurements (excitation at 485 nm and emission at 520 nm) were then taken from 10 min to 24 h using a fluorescence plate reader (BMG POLARstar Galaxy Labtech, Ortenberg, Germany). The concentration of DMSO (0.2%) was identical in all treatments and had no effect on ROS production at this concentration.

CYP1A2 mRNA expression [11] = experiment: RT-qPCR CYP1A2 mRNA, MDA-MB-231; conditions: 24 h, E2 1 µM, Fig. 2c
Procedure: as §1, §3

CYP1A1 [12] = experiment: RT-qPCR CYP1A1 mRNA, MCF-7; format: cell-based, human; conditions: data not shown
Procedure: as §1, §3

CYP1B1 mRNA expression [13] = experiment: RT-qPCR CYP1B1 mRNA, MDA-MB-231; conditions: 24 h, E2 1 µM, Fig. 2d
Procedure: as §1, §3

[14] = system: intracellular ROS in MCF-7 cells; parameters: method as in Li et al. [2013]; Martinez-Outschoorn et al. [2010]; conditions: NAC 10 mM, ref Li et al. [2013], Martinez-Outschoorn et al. [2010]; cited from earlier work
[15] = PhIP 100 nM, three independent cultures
[16] = etoposide positive control (1.25 µM)

SMILES: Cn1c(N)nc2ncc(-c3ccccc3)cc21 [PhIP, 2-amino-1-methyl-6-phenylimidazo[4,5-b]pyridine]
- MN frequency (mean ± SD) (MDA-MB-231 cells [1]; PhIP 100 nM): 3.2 ± 2.5 MN/1000 cells
- MN frequency (mean ± SD) (MDA-MB-231 cells [1]; PhIP 1 µM): 4.7 ± 1.8 MN/1000 cells
- MN frequency (mean ± SD) (MDA-MB-231 cells [1]; PhIP 10 µM): 9 ± 0.9 MN/1000 cells
- MN frequency (mean ± SD) (MDA-MB-231 cells [1]; PhIP 100 µM): 13.7 ± 1.3 MN/1000 cells
- STAT3 mRNA expression (STAT3 mRNA expression): dose-dependent upregulation
- CYP2E1 mRNA expression (CYP2E1 mRNA expression [2]; PhIP treatment, Fig. 3a): induced CYP2E1 mRNA expression in a dose-dependent manner
- change in cell survival following treatment (MCF-7 cells [3]; Fig. 1a): No significant change
- Cytotoxicity (percent survival ± SD) (MCF-7 cells [3]; [15]): 86% ± 2.4
- Cytotoxicity (percent survival ± SD) (MCF-7 cells [3]; PhIP 1 µM): 85.6% ± 2.4
- Cytotoxicity (percent survival ± SD) (MCF-7 cells [3]; PhIP 10 µM): 85.8% ± 2.6
- Cytotoxicity (percent survival ± SD) (MCF-7 cells [3]; PhIP 100 µM): 82.7% ± 1.7
- miR378 expression (miR378 expression): no change
- change in cell survival following treatment (MDA-MB-231 cells [4]; Fig. 1b): No significant change
- Cytotoxicity (percent survival ± SD) (MDA-MB-231 cells [4]; PhIP 100 nM): 87.2% ± 0.9
- Cytotoxicity (percent survival ± SD) (MDA-MB-231 cells [4]; PhIP 1 µM): 88.1% ± 0.9
- Cytotoxicity (percent survival ± SD) (MDA-MB-231 cells [4]; PhIP 10 µM): 90.4% ± 4.3
- Cytotoxicity (percent survival ± SD) (MDA-MB-231 cells [4]; PhIP 100 µM): 87.7% ± 1.5
- CYP1A2 mRNA expression vs vehicle control (CYP1A2 mRNA expression [5]): can induce
- CYP1A1 induction (CYP1A1 [6]): failed to induce
- MN frequency (mean ± SD) (MCF-7 cells [7]; [15]): 12.8 ± 5.1 MN/1000 cells
- MN frequency (mean ± SD) (MCF-7 cells [7]; PhIP 1 µM): 22.3 ± 2.6 MN/1000 cells
- MN frequency (mean ± SD) (MCF-7 cells [7]; PhIP 10 µM): 29.2 ± 3.4 MN/1000 cells
- MN frequency (mean ± SD) (MCF-7 cells [7]; PhIP 100 µM): 49 ± 3.5 MN/1000 cells
- JAK2 mRNA expression (JAK2 mRNA expression): dose-dependent increase
- CYP1B1 mRNA expression vs vehicle control (CYP1B1 mRNA expression [8]; MCF-7, 24 h, E2 1 µM, Fig. 2b): can induce
- CYP1B1 induction in MCF-7 compared to MDA-MB-231 cells (CYP1B1 mRNA expression [8]; PhIP, Fig. 2): higher
- CYP2E1 mRNA expression (CYP2E1 mRNA expression [9]): but not in MDA-MB-231 cells
- ROS levels ([10]; PhIP 24 h, pronounced over the first 60 min, Fig. 5a): dose-dependent increase
- intracellular ROS levels [10]: Elevated
- CYP1A2 mRNA expression vs vehicle control (CYP1A2 mRNA expression [11]): can induce
- CYP1A1 induction (CYP1A1 [12]): failed to induce
- CYP1B1 mRNA expression vs vehicle control (CYP1B1 mRNA expression [13]): can induce

SMILES: CC(=O)N[C@@H](CS)C(=O)O [NAC, N-acetyl-cysteine, reference compound]
- accumulation of ROS [14]: abolish
- effect of NAC on cell survival (MCF-7 cells [3]; ethanol 50 mM and PhIP 100 µM with NAC 10 mM, Fig. 7d): did not affect
- effect of NAC on genotoxicity of etoposide (MCF-7 cells [7]; NAC 10 mM, Fig. 7e): little effect
- effect of NAC on genotoxicity of PhIP plus ethanol (MCF-7 cells [7]; NAC 10 mM, p = 0.01, Fig. 7e): decreased the genotoxicity of PhIP plus ethanol significantly
- effect of NAC on ethanol-induced ROS production ([10]; ethanol 50 mM plus NAC 10 mM, Fig. 7c): clear decrease

SMILES: CCO [ethanol]
- ethanol concentration at which CYP2E1 increase was significant (CYP2E1 mRNA expression [2]; Fig. 6a): 50 to 100 mM
- CYP2E1 expression (CYP2E1 mRNA expression [2]; ethanol 10 to 100 mM, Fig. 6a): dose-dependent increase
- effect of addition of ethanol on genotoxicity of etoposide (MCF-7 cells [7]; Fig. 7b): No change
- MN induction (MCF-7 cells [7]; ethanol 50 mM, 24 h, Fig. 7b): did not significantly induce
- intracellular ROS levels [10]: Elevated

SMILES: COc1cc([C@@H]2c3cc4c(cc3[C@@H](O[C@@H]3O[C@@H]5CO[C@@H](C)O[C@H]5[C@H](O)[C@H]3O)[C@H]3COC(=O)[C@H]23)OCO4)cc(OC)c1O [Etoposide, reference compound]
- Cytotoxicity (percent survival ± SD) (MCF-7 cells [3]; [16]): 81.7% ±1.4
- Cytotoxicity (percent survival ± SD) (MDA-MB-231 cells [4]; [16]): 83.7% ± 2.3
